PubChem BioAssay AID1671292

Molecular target: Homeodomain-interacting protein kinase 1 (Homo sapiens) (UniProt Q86Z02)
Test: inhibition of human HIPK1 (Myak) activity – biochemical, Z'-LYTE, FRET, protease-coupled, direct format, dose response (AID 1671292)
Conditions: Z'-LYTE FRET kinase assay, recombinant HIPK1

Homeodomain-interacting protein kinase 1 (Homo sapiens), sequence (Q86Z02 whole entry, looked up): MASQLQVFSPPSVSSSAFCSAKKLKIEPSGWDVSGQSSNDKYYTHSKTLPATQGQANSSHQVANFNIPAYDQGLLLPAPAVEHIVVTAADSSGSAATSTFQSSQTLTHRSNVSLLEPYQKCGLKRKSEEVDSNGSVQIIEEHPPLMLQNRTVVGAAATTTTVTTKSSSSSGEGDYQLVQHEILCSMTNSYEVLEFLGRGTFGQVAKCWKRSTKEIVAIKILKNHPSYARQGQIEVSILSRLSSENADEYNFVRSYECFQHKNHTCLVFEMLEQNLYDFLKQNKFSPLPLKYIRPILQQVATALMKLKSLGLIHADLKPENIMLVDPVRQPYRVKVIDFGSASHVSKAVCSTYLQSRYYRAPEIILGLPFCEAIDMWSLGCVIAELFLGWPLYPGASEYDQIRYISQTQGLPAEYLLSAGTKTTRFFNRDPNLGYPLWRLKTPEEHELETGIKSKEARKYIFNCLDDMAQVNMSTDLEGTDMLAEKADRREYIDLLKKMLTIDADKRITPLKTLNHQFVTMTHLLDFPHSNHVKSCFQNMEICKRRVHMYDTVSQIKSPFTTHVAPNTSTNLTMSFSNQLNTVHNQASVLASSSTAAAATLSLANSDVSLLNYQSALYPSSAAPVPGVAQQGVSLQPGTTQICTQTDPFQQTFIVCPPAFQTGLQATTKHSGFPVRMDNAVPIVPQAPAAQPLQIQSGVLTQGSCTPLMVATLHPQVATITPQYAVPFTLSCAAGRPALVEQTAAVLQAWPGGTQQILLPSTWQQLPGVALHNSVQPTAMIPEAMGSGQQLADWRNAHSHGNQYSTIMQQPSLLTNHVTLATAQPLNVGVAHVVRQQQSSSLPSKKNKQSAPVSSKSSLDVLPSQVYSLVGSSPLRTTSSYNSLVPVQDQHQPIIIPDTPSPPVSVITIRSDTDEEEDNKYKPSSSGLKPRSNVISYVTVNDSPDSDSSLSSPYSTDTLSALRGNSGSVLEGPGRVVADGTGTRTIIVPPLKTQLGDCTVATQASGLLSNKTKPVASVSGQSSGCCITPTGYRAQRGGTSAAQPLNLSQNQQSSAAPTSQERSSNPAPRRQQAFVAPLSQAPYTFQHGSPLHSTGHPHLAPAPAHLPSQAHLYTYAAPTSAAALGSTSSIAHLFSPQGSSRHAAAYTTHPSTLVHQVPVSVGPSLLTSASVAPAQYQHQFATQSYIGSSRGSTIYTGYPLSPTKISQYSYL

`Brc1c(Br)c(Br)c2n[nH]nc2c1Br` was tested, and the IC50 was 4.47 µM.
